According to publication PMC9841524, “Structure-Based Rational Design of Small α-Helical Peptides with Broad-Spectrum Activity against Multidrug-Resistant Pathogens” (Journal of Medicinal Chemistry, 2022):
Read-outs that look alike come from different tables or passages of the source. Where no end group is shown, it is not given here.

Columns and labels:
E. coli (ATCC 25922) = details: broth microdilution (CLSI), CAMHB, 37 °C, 24 h
Method: (§1) Description of the characteristics and growth conditions of various bacterial strains used in the study are provided in the Supporting Information (Table S3). Antibacterial susceptibility testing was carried out using a standard microtiter dilution method recommended by the clinical and laboratory standard institute (CLSI) and measured as a minimum inhibitory concentration (MIC), the lowest peptide concentration that inhibited bacterial growth. Briefly, the overnight grown cultures in the recommended broth for each bacterial strain were diluted in cation-adjusted Mueller Hinton Broth (CAMHB) to give an inoculum of 10^6 colony-forming units (CFU)/mL. A 2-fold serially diluted test peptide solution (100 μL) was added to the microtiter plates. After adding bacterial suspension (100 μL), the plates were incubated at 37 °C for 24 h, and the MICs were determined. The same protocol was used to determine the MICs in the presence of salts and serum except using the media supplemented with various cationic salts (150 mM NaCl, 4.5 mM KCl, 6 mM NH4Cl, 1 mM MgCl2, and 2 mM CaCl2) or 25% FBS. The data was acquired from three independent assays performed in triplicate.
(§2) The bacterial strains employed in this study were obtained from the American Type Culture Collection (ATCC). Each strain was propagated as recommended by the ATCC, and each strain was stored as a frozen glycerol stock at -80°C. A bacterial colony was grown on the appropriate agar as indicated in Table S1 and was used to inoculate the appropriate broth. The culture was incubated at the appropriate conditions, as mentioned in Table S1. Following the incubation, the culture was diluted to an optical density 625 nm (OD625) of 0.1 in cation adjusted Mueller Hinton Broth (CAMHB), which is equivalent to 1 × 10^8 CFU/mL. The culture was further diluted to 1 × 10^6 CFU/mL, which was used to conduct the MIC determination assay. For the S. pneumoniae strains, CAMHB + 2.5% lysed horse blood was required for the assay. The strains with their […]
(§3) Table S3. Description of the characteristics and growth conditions of various bacterial strains

MRSA (ATCC BAA-1556) = details: broth microdilution (CLSI), CAMHB, 37 °C, 24 h
Method: as §1, §2, §3

[1] = system: P. aeruginosa (ATCC 27883); assay: MIC, standard microtiter dilution (CLSI); type: cell-based, Pseudomonas aeruginosa; details: broth microdilution (CLSI), CAMHB, 37 °C, 24 h
Method: as §1, §2, §3

S. aureus (ATCC 29213) = assay: MIC, standard microtiter dilution (CLSI); type: cell-based; details: for MIC, S. aureus (ATCC 29213): broth microdilution (CLSI), CAMHB, 37 °C, 24 h
Method: as §1, §2, §3

[2] = system: human red blood cells (hRBCs); assay: Hemolytic assay; type: cell-based; details: 2 h, 37 °C
Method: The hemolytic activity of all peptides (1a–8d) was determined using hRBC. The assay was conducted by adding 75 μL of 2-fold serially diluted peptides to 75 μL of hRBC suspension (4% in PBS). The plates were incubated for 2 h at 37 °C without agitation. In order to determine the hemolysis at each tested concentration of peptides, the plate was centrifuged, and 100 μL of the supernatant was transferred to another 96-well plate to determine hemoglobin release spectrophotometrically at 567 nm. Percent hemolysis was calculated by the following formula [drawing 1] where A represents the absorbance of the peptide sample at 567 nm and A0 and At represent zero percent and 100% hemolysis determined in phosphate buffer saline and 1% Triton X-100, respectively.

[3] = system: K. pneumoniae (ATCCBAA-1705); assay: MIC, standard microtiter dilution (CLSI); type: cell-based, Klebsiella pneumoniae; details: broth microdilution (CLSI), CAMHB, 37 °C, 24 h
Method: as §1, §2, §3

[4] = 10^6 CFU/mL, highest MIC of three independent experiments in triplicate
[5] = hRBC suspension 4% in PBS, hemoglobin release at 567 nm, 1% Triton X-100 = 100%
[6] = value in parentheses (μM), hRBC 4% in PBS, 567 nm

Substance | MIC, E. coli (ATCC 25922) (E. coli (ATCC 25922); [4]) [mg/L] | MIC, E. coli (ATCC 25922) (E. coli (ATCC 25922); value in parentheses (μM)) [µM] | MIC, MRSA (ATCC BAA-1556) (MRSA (ATCC BAA-1556); [4]) [mg/L] | MIC, MRSA (ATCC BAA-1556) (MRSA (ATCC BAA-1556); value in parentheses (μM)) [µM] | MIC, P. aeruginosa (ATCC 27883) [1, 4] [mg/L] | MIC, P. aeruginosa (ATCC 27883) ([1]; value in parentheses (μM)) [µM] | MIC, S. aureus (ATCC 29213) (S. aureus (ATCC 29213); [4]) [mg/L] | MIC, S. aureus (ATCC 29213) (S. aureus (ATCC 29213); value in parentheses (μM)) [µM] | HC50 (concentration at which 50% hemolysis was observed) [2, 5] [µg/mL] | HC50 (concentration at which 50% hemolysis was observed) [2, 6] [µM] | MIC, K. pneumoniae (ATCCBAA-1705) [3, 4] [mg/L] | MIC, K. pneumoniae (ATCCBAA-1705) ([3]; value in parentheses (μM)) [µM] | MIC against S. aureus (S. aureus (ATCC 29213)) [mg/L]
RRWWRRW-NH2 [1b] | > 100 | > 83.30 | 100 | 83.30 | > 100 | > 83.30 | 50 | 41.65 | > 500 | > 416.52 | > 100 | > 83.30 | –
RWARRAWRAW-NH2 [4e] | > 100 | > 70.74 | > 100 | > 70.74 | > 100 | > 70.74 | > 100 | > 70.74 | > 500 | > 353.69 | > 100 | > 70.74 | –
RWARRWARWWR-NH2 [5b] | 100 | 59.35 | 100 | 59.35 | 100 | 59.35 | 50 | 29.67 | > 500 | > 296.74 | > 100 | > 59.35 | 50
RWARRWWR-NH2 [2c] | > 100 | > 78.65 | > 100 | > 78.65 | > 100 | > 78.65 | > 100 | > 78.65 | > 500 | > 393.23 | > 100 | > 78.65 | –
RWARRWWRA-NH2 [3c] | > 100 | > 74.48 | > 100 | > 74.48 | > 100 | > 74.48 | > 100 | > 74.48 | > 500 | > 372.42 | > 100 | > 74.48 | –
RWIRRWIRWWR-NH2 [5c] | 100 | 56.52 | 50 | 28.26 | 50 | 28.26 | 50 | 28.26 | > 500 | > 282.62 | 100 | 56.52 | –
RWRRWWR-NH2 [1a] | > 100 | > 83.30 | 100 | 83.30 | > 100 | > 83.30 | 100 | 83.30 | > 500 | > 416.52 | > 100 | > 83.30 | –
RWWRAAWRR-NH2 [3d] | > 100 | > 74.48 | > 100 | > 74.48 | > 100 | > 74.48 | > 100 | > 74.48 | > 500 | > 372.42 | > 100 | > 74.48 | –
RWWRRAWR-NH2 [2b] | > 100 | > 78.65 | > 100 | > 78.65 | > 100 | > 78.65 | > 100 | > 78.65 | > 500 | > 393.23 | > 100 | > 78.65 | –
RWWRRAWRA-NH2 [3a] | > 100 | > 74.48 | > 100 | > 74.48 | > 100 | > 74.48 | > 100 | > 74.48 | > 500 | > 372.42 | > 100 | > 74.48 | –
RWWRRAWRAA-NH2 [4c] | > 100 | > 70.74 | > 100 | > 70.74 | > 100 | > 70.74 | > 100 | > 70.74 | > 500 | > 353.69 | > 100 | > 70.74 | –
WRRWARRW-NH2 [2d] | > 100 | > 78.65 | > 100 | > 78.65 | > 100 | > 78.65 | > 100 | > 78.65 | > 500 | > 393.23 | > 100 | > 78.65 | –
